Data on one compound can be found in US20140088192A1, “SUBCUTANEOUSLY INFUSIBLE LEVODOPA PRODRUG COMPOSITIONS AND METHODS OF INFUSION” (SynAgile Corporation, priority 2010, published 2014).

For the data set, the system named is volunteer. Put plainly: Intramuscular / subcutaneous infusion of LDEE.HCl in human volunteers, local tolerability. The format is in vivo. Here is the method: The flow rate was 0.6 mL/h. […] The protrusion disappeared after 2 days.
A healthy volunteer took one Lodosyn (carbidopa), 25 mg pill, at each of the morning, midday and evening of the day preceding the infusion, and in the morning, midday and evening of the day of the infusion. After adjusting the pH of a stored solution of pH 2.4 and 2.5 mL volume of 2.9 M LDEE.HCl by adding to it 0.16 mL of 1.5 M trisodium citrate solution to about pH 4.6±0.1, a 2.7 M LDEE.HCl solution was obtained. Using a Medtronic Minimed Paradigm 723, a Medtronic Minimed Silhouette, 43 inches, 17 mm cannula infusion set, a Medtronic Minimed Sil-Serter infusion set insertion system, the volunteer infused 0.67 mL of the 2.7 M LDEE.HCl solution into their abdomen over a period of 9 hours. The infusion site was 7-8 cm below the ribs. The initial 4 hr infusion was at a rate of 0.062 mL/hr (37.5 mg of LDEE/hr), followed by 0.082 mL/hr (50 mg of LDEE/hr) in the next 5 hours. The total infused volume contained 406 mg LDEE, the equivalent to 356 mg L-DOPA.
A healthy volunteer took one Lodosyn (carbidopa), 25 mg pill, at each of the evening preceding the infusion, and in the morning, midday and evening of the day of the infusion. After adjusting the pH to about pH 4.7±0.3 of a stored solution of pH 2.4 and 2.5 mL volume of 2.9 M LDEE.HCl by adding 0.16 mL of 1.5 M trisodium citrate solution, a 2.7 M LDEE.HCl solution was obtained. Using a Medtronic Minimed Paradigm 723, a Medtronic Minimed Silhouette, 43 inches, 17 mm cannula infusion set, and a Medtronic Minimed Sil-Serter infusion set insertion system, the a volunteer infused 0.67 mL of the 2.7 M LDEE.HCl solution into the frequently exercised and occasionally massaged outside of the upper arm over a period of 9 hours. The initial 4 hr infusion was at a rate of 0.062 mL/hr (37.5 mg of LDEE/hr), followed by 0.082 mL/hr (50 mg of LDEE/hr) in the next 5 hours. The total infused volume contained 400 mg LDEE, the equivalent to 351 mg L-DOPA.
A healthy volunteer took one Lodosyn (carbidopa), 25 mg pill, at each of the evening of the day preceding the infusion, and in the morning, mid-day and evening of the day of the infusion. 1 mL of the 2.9 M LDEE.HCl stored solution of pH 2.4, 0.04 mL of a 1.5 M trisodium citrate solution and 2 mL sterile water were syringed into the reservoir of a Medtronic Minimed Paradigm 723 pump. This pump and a Medtronic Minimed Silhouette, 43 inches, 17 mm cannula infusion set inserted with a Medtronic Minimed Sil-Serter infusion set insertion system were used. The volunteer infused 1.85 mL, or 396 mg LDEE (equivalent to 347 mg L-DOPA) of the now 3× diluted 0.95 M LDEE solution into their upper arm over a period of 9 hours at two rates: First near 37.5 mg/hr (0.175 mL/hr) for 4 hours then near 50 mg/hr (0.233 mL/hr) for 5 hours. During the course of the infusion the volunteer periodically exercised their arm and gently massaged the infusion site.
A healthy volunteer took one Lodosyn (carbidopa), 25 mg pill, at each of the evening of the day preceding the infusion, and in the morning, mid-day and evening of the day of the infusion. The reservoir of a Medtronic Minimed Paradigm 723 pump was primed (to assure that all of the 3 mL in the reservoir will be infused) then the reservoir was filled with 0.6 mL of the 2.9 M LDEE.HCl stored solution of pH 2.4, 0.024 mL of a 1.5 M trisodium citrate solution and 2.4 mL sterile water by syringing. The pump, a Medtronic Minimed Silhouette, 43 inches, 17 mm cannula infusion set, and a Medtronic Minimed Sil-Serter infusion set insertion system were used. The volunteer infused 3 mL, or 400 mg LDEE (equivalent to 350 mg L-DOPA) of the now 5× diluted (i.e. 0.58 M) LDEE solution into their upper arm over a period of 9 hours at a flow rate of 0.33 mL/hr. […] The infusion ended at 7:30 pm. […]

The mark [1] stands for this setting: intramuscular, right upper arm, about 0.45 mL of 2.3 M pH 4.5 over 45 min.
The mark [2] stands for this setting: s.c. abdomen, 0.67 mL of 2.7 M over 9 hours.
[3] abbreviates: s.c. exercised upper arm, 0.67 mL of 2.7 M over 9 hours.
Setting [4] is: s.c. exercised upper arm, 1.85 mL of 0.95 M over 9 hours.
[5] abbreviates: s.c. upper arm, 3 mL of 0.58 M over 9 hours.
Setting [6] is: s.c. upper arm, 10.7 mL of 0.48 M over 18 hours.

The structures appear in SMILES notation.

For the compound `CCOC(=O)[C@@H](N)Cc1ccc(O)c(O)c1.Cl` [LDEE.HCl, LDEE Hydrochloride], where the note is “intramuscular, about 0.45 mL of 2.3 M pH 4.5”, the “time to disappearance of the protrusion” value was 2 days. In addition, under setting [1], the “local reaction after infusion” value is “small nodule which spread after 4 hours into an about 1 mm high, 2-3 cm radius protrusion” and the “pain, inflammation, color change, sensitivity at the site” value is listed as “no pain, inflammation, color change or sensitivity”. Further, the pain or irritation entry (s.c. abdomen, 0.24 mL of 2.3 M pH 4.5 over about 90 min in 8 boluses) is given as “felt no pain or irritation during or after the infusion”. Under setting [2], the “course of induration after 24 hours” value is “became diffuse and partly, but not completely, subsided”; the other adverse events result is recorded as “no other adverse events”; the “swelling / induration at infusion site” value was “Mild swelling was observed and an induration of approximately 2.5 cm diameter developed”. The pain or redness result (s.c. abdomen, 0.67 mL of 2.7 M pH about 4.6 over 9 hours, oral carbidopa) is “virtually no pain or redness”. Under setting [3], the course of swelling entry is “disappeared after a week”, the other adverse events result is listed as “no other adverse events of any kind” and the “swelling at infusion site at end of infusion” value is listed as “about 7 cm long elongated mildly swollen region”. In addition, the pain or redness entry (s.c. exercised upper arm, 0.67 mL of 2.7 M pH about 4.7 over 9 hours, oral carbidopa) is given as “virtually no pain or redness”. Also, under setting [4], the course of swelling result is “disappeared gradually in about three days”, the other adverse events entry is “no other adverse events” and the “swelling at infusion site at end of infusion” value is “very slightly swollen region of about 4 cm diameter”. The pain or redness result (s.c. exercised upper arm, 1.85 mL of 0.95 M over 9 hours, oral carbidopa) is “no pain or redness”. Further, under setting [5], the adverse events result is “no adverse events”; the “local findings at end of infusion” value is “very slight reddening of a 2×4 cm skin area and a very slightly harder than normal 2 cm diameter zone under the skin”; the “site on the following morning” value was “the skin and infused tissue appeared normal”. Further, the pain during infusion result (s.c. upper arm, 3 mL of 0.58 M over 9 hours, oral carbidopa) was “felt no pain during the infusion”. Under setting [6], the adverse events entry is given as “no adverse events”, the swelling result is “swelling most of which subsided within 8 hours” and the “time after which swelling was no longer visible” value was 12 h. Moreover, under “s.c. upper arm, 10.7 mL of 0.48 M pH 4.8-5.0 (5.1 millimoles) over 18 hours, oral carbidopa”, the “pain, reddening, inflammation at end of infusion” value was “no pain, reddening or inflammation”.
